Results as given in the supplement of paper PMC10307832.

Experiments:
Assay in all cases: relative viability (nuclei count vs DMSO), 5 days (fraction); higher = more cells survive
Obatoclax + Palbociclib = compound: COC1=CC(c2cc3ccccc3[nH]2)=N/C1=C\c1[nH]c(C)cc1C [Obatoclax] + CC(=O)c1c(C)c2cnc(Nc3ccc(N4CCNCC4)cn3)nc2n(C2CCCC2)c1=O [Palbociclib] (partner 0.5 µM)
Procedure, shortened: (§1)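 Relative viability was taken as the ratio of nuclei in treated wells to nuclei in vehicle wells. Lung cancer cell lines in 1536-well plates received compounds by pin tool one day after seeding, either one drug alone or a fixed anchor-drug dose plus five library-drug doses (not always all listed) in √10 steps. Nuclei were counted on 4× images after 5 days of treatment, and values are medians of duplicate plates.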

Bortezomib + Trametinib = compound: CC(C)C[C@H](NC(=O)[C@H](Cc1ccccc1)NC(=O)c1cnccn1)B(O)O [Bortezomib] + CC(=O)Nc1cccc(-n2c(=O)n(C3CC3)c(=O)c3c(Nc4ccc(I)cc4F)n(C)c(=O)c(C)c32)c1 [Trametinib] (partner 0.02 µM)
Procedure, shortened: as §1

Obatoclax + Linsitinib = compound: COC1=CC(c2cc3ccccc3[nH]2)=N/C1=C\c1[nH]c(C)cc1C [Obatoclax] + C[C@]1(O)C[C@@H](c2nc(-c3ccc4ccc(-c5ccccc5)nc4c3)c3c(N)nccn32)C1 [Linsitinib] (partner 1 µM)
Procedure, shortened: as §1

[1] = compound: CC1=CC(=NN1)NC2=CC(=NC(=N2)/C=C/C3=CC=CC=C3)N4CCN(CC4)C + CS(=O)(=O)N1CCN(Cc2cc3nc(-c4cccc5[nH]ncc45)nc(N4CCOCC4)c3s2)CC1 [Pictilisib] (partner 1 µM)
Procedure, shortened: as §1

Cell Line	relative viability (Obatoclax + Palbociclib; first compound 0.01 µM)	relative viability (Obatoclax + Palbociclib; first compound 0.03162 µM)	relative viability (Obatoclax + Palbociclib; first compound 0.3162 µM)	relative viability (Obatoclax + Palbociclib; first compound 1 µM)	relative viability (Bortezomib + Trametinib; first compound 0.0002 µM)	relative viability (Bortezomib + Trametinib; first compound 0.000632 µM)	relative viability (Bortezomib + Trametinib; first compound 0.002 µM)	relative viability (Bortezomib + Trametinib; first compound 0.006325 µM)	relative viability (Bortezomib + Trametinib; first compound 0.02 µM)	relative viability (Obatoclax + Linsitinib; first compound 0.01 µM)	relative viability (Obatoclax + Linsitinib; first compound 0.03162 µM)	relative viability (Obatoclax + Linsitinib; first compound 0.1 µM)	relative viability (Obatoclax + Linsitinib; first compound 0.3162 µM)	relative viability (Obatoclax + Linsitinib; first compound 1 µM)	relative viability ([1]; first compound 0.08 µM)	relative viability ([1]; first compound 0.253 µM)	relative viability ([1]; first compound 0.8 µM)	relative viability ([1]; first compound 2.53 µM)	relative viability ([1]; first compound 8 µM)	relative viability (Obatoclax + Palbociclib; first compound 0.1 µM)
LU99A	0.426	0.377	0.402	0.4	0.546	0.522	0.567	0.517	0.148	0.486	0.437	0.498	0.307	0.475	0.328	0.296	0.284	0.157	0.142	–
LXF-289	0.588	0.609	0.629	0.613	0.699	0.672	0.768	0.113	0.101	0.903	0.969	0.961	0.93	0.994	0.802	0.783	0.74	0.442	0.277	0.588
NCI-H23	0.49	0.548	0.475	0.39	0.343	–	0.286	0.193	0.114	0.588	0.598	0.647	0.606	0.598	0.462	0.48	0.382	0.296	0.134	0.496
NCI-H322M	0.491	0.485	0.501	0.452	0.547	0.455	0.47	0.486	0.411	0.943	0.958	0.941	0.893	0.89	0.456	0.52	0.463	0.219	0.242	0.58
NCI-H358	0.13	0.127	0.114	0.117	0.12	0.121	0.133	0.094	0.0906	0.735	0.504	0.394	0.344	0.278	0.296	0.29	0.293	0.138	0.108	0.142
NCI-H441	0.231	0.214	0.167	0.155	0.428	0.482	0.153	0.131	0.127	0.683	0.551	0.394	0.52	0.435	0.463	0.554	0.265	0.172	0.0803	0.261
NCI-H460	0.153	0.14	0.055	0.0295	0.126	0.157	0.202	0.0768	0.0189	0.719	0.864	0.582	0.0258	0.0195	0.32	0.427	0.383	0.221	0.036	0.201
NCI-H520	0.287	0.23	0.187	0.151	0.667	0.741	0.451	0.141	0.128	0.925	0.891	1.12	0.583	0.262	0.335	0.306	0.251	0.156	0.127	0.331
NCI-H647	0.458	0.321	0.151	0.0783	0.471	0.404	0.542	0.0211	0.0513	1.14	1.13	1.11	0.317	0.254	0.438	0.48	0.377	0.0644	0.051	0.398
NCI-H661	0.393	0.397	0.413	0.34	0.526	0.493	0.62	0.364	0.207	0.598	0.564	0.66	0.529	0.735	–	0.408	0.346	0.259	0.205	0.465
NCI-H727	0.608	0.618	0.62	0.646	0.367	0.43	0.363	0.413	0.266	0.372	0.28	0.343	0.267	0.231	0.357	0.298	0.34	0.199	0.153	0.779
NCI-H838	0.223	0.219	0.195	0.146	0.479	0.677	0.549	0.106	0.0935	0.984	1.06	0.862	0.717	0.935	0.463	0.488	0.471	0.193	0.105	0.19
NCI-H1355	0.398	0.391	0.387	0.369	0.432	0.468	0.457	0.216	0.118	0.867	0.87	0.802	0.739	0.75	0.412	0.36	0.395	0.263	0.118	0.371
NCI-H1395	0.554	0.602	0.6	0.439	1.14	0.939	0.708	0.315	0.31	1.23	0.922	0.884	0.926	0.526	0.668	0.669	0.583	0.379	0.239	0.597
NCI-H1437	0.306	0.311	0.31	0.237	0.537	0.584	0.551	0.178	0.226	1.01	0.988	0.979	0.912	0.705	0.57	0.446	0.416	0.271	0.0592	0.324
NCI-H1651	0.522	0.501	0.553	0.554	0.802	0.843	0.726	0.155	0.117	0.915	0.961	0.91	0.432	0.271	0.656	0.622	0.583	0.201	0.0876	0.524

Cell Line	relative viability (Obatoclax + Palbociclib; first compound 0.01 µM)	relative viability (Obatoclax + Palbociclib; first compound 0.03162 µM)	relative viability (Obatoclax + Palbociclib; first compound 0.3162 µM)	relative viability (Obatoclax + Palbociclib; first compound 1 µM)	relative viability (Bortezomib + Trametinib; first compound 0.0002 µM)	relative viability (Bortezomib + Trametinib; first compound 0.000632 µM)	relative viability (Bortezomib + Trametinib; first compound 0.002 µM)	relative viability (Bortezomib + Trametinib; first compound 0.006325 µM)	relative viability (Bortezomib + Trametinib; first compound 0.02 µM)	relative viability (Obatoclax + Linsitinib; first compound 0.01 µM)	relative viability (Obatoclax + Linsitinib; first compound 0.03162 µM)	relative viability (Obatoclax + Linsitinib; first compound 0.1 µM)	relative viability (Obatoclax + Linsitinib; first compound 0.3162 µM)	relative viability (Obatoclax + Linsitinib; first compound 1 µM)	relative viability ([1]; first compound 0.08 µM)	relative viability ([1]; first compound 0.253 µM)	relative viability ([1]; first compound 0.8 µM)	relative viability ([1]; first compound 2.53 µM)	relative viability ([1]; first compound 8 µM)	relative viability (Obatoclax + Palbociclib; first compound 0.1 µM)
NCI-H1666	0.593	0.692	0.638	0.592	0.918	0.972	0.914	0.599	0.522	0.876	0.822	0.745	0.313	0.275	0.494	0.389	0.358	0.325	0.176	0.659
NCI-H1734	0.3	0.338	0.32	0.303	0.647	0.7	0.685	0.161	0.0924	0.808	0.799	–	0.728	0.749	0.463	0.422	0.456	0.214	0.122	0.337
NCI-H1755	0.427	0.447	0.497	0.426	0.761	0.77	0.706	0.279	0.223	0.986	0.996	0.96	0.991	1.03	0.418	0.351	0.419	0.195	0.0971	0.458
NCI-H1792	0.626	0.609	0.625	0.705	0.506	0.413	0.446	0.292	0.0651	0.667	0.502	–	0.48	0.561	0.268	0.259	0.293	0.205	0.0778	–
NCI-H1793	0.286	0.284	0.33	0.384	0.445	–	0.457	0.414	0.132	0.802	0.662	0.935	0.77	0.78	0.229	0.235	0.306	0.293	0.116	0.323
NCI-H1915	0.527	0.557	0.486	0.522	0.283	0.307	0.33	0.196	0.0537	1.07	1.06	1.09	1.07	1.06	0.948	0.674	0.885	0.571	0.289	0.521
NCI-H1944	0.344	0.313	0.318	0.319	0.43	0.371	0.397	0.297	0.193	1.1	1.2	1.27	1.19	1.3	0.317	0.34	0.348	0.281	0.223	0.34
NCI-H1975	0.557	0.55	0.542	0.177	0.501	0.312	0.152	0.11	0.0939	0.988	0.989	0.99	0.939	0.971	0.284	0.307	0.25	0.128	0.0893	0.285
NCI-H1993	0.703	0.611	0.693	0.686	0.51	0.507	0.527	0.452	0.375	0.754	0.772	0.712	0.737	0.623	0.817	–	0.744	0.808	0.599	0.692
NCI-H2009	0.215	0.224	0.188	0.123	0.322	0.223	0.256	0.0731	0.0528	1.12	1.2	1.19	1.02	0.262	0.754	0.415	0.781	0.25	0.142	0.194
NCI-H2023	0.414	0.361	0.213	0.218	0.631	0.569	0.533	0.131	0.0889	0.624	0.648	0.635	0.608	0.279	0.203	0.266	0.197	0.0664	0.0528	0.358
NCI-H2085	0.472	0.45	0.482	0.423	0.622	0.501	0.54	0.228	0.155	0.969	0.85	0.856	0.602	0.523	0.437	0.39	0.431	0.18	0.236	0.462
NCI-H2087	0.212	0.216	0.231	0.116	0.201	0.187	0.149	0.0967	0.0704	0.949	0.773	0.748	0.429	0.264	0.828	0.542	0.877	0.447	0.141	0.183
NCI-H2126	0.34	0.34	0.356	0.337	0.548	0.599	0.54	0.496	0.202	0.684	0.713	0.722	0.712	0.705	0.499	0.461	0.522	0.482	0.338	0.376
NCI-H2228	0.609	0.792	0.525	0.401	0.469	0.505	0.32	0.123	0.0916	0.536	1.03	1.12	0.445	0.448	0.433	0.547	0.468	0.065	0.0792	0.573
NCI-H2347	0.388	0.406	0.489	0.413	0.263	0.283	0.193	0.243	0.232	0.915	0.91	0.787	0.91	0.909	0.63	0.342	0.777	0.417	0.333	0.393
